T1: GRP (Mus musculus, UniProt O08967)
T1 construct: GST (N, cleaved yes); made in house; host or cells: GRP from pGEX-4T; ARF1 from baculovirus-infected Sf-9 cells
T1 sequence (O08967 1-399): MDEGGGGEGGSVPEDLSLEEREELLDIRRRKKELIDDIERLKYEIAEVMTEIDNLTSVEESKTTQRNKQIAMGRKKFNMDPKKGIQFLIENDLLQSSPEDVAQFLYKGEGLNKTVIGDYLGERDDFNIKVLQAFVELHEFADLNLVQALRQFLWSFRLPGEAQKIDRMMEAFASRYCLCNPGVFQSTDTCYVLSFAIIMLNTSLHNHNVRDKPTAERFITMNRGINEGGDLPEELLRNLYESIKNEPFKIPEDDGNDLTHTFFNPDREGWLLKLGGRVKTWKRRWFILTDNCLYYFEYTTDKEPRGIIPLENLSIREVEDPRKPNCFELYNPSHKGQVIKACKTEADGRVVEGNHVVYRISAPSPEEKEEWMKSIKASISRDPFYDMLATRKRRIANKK

T2: GSTPH(GRP) (Mus musculus, UniProt O08967)
T2 construct: residues 239 to 399 (PH domain); made in house; host or cells: bacteria
T2 sequence (O08967 239-399): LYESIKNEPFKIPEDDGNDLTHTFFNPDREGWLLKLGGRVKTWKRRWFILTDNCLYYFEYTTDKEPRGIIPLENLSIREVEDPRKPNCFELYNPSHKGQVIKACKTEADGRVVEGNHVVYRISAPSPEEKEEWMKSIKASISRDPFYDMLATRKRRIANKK


Columns and labels:
GRP = target: T1, GRP; test: Inhibition by inositol phosphates of PtdIns(3,4,5)P3-stimulated GRP-mediated ARF1 exchange; format: biochemical; settings: 100 μM inositol phosphate, 0.05% cholate and 0.05% CHAPS
GSTPH(GRP) = target: T2, GSTPH(GRP); test: Competition of [32P]PI(3,4,5)P3 binding to GST-PH by inositol phosphate head groups; set-up: species or system murine; settings: for inhibition of [^32 P]PI(3,4,5)P3 binding to GST-PH(GRP): 100 μM competitor; for binding of inositol phosphate to GRP polypeptides: statement in the description
Source text: (§1) To generate the GST fusion proteins, PCR reactions using the primers: […] (SEQ ID NO:9) and […] (SEQ ID NO:10) for the GST-N construct, […] (SEQ ID NO:11) and […] (SEQ ID NO:12) for the GST-Sec7 construct, […] (SEQ ID NO:13) and […] (SEQ ID NO:14) for the GSTPH construct, and […] (SEQ ID NO:15) and […] (SEQ ID NO:16) for the GSTGRP constructs. The sequences of the PCR products were verified, and cloned into pGEX-5X-3 in the EcoRI and Xba 1 sites. The bacteria were lysed and the fusion proteins were bound to gluthathione agarose according to standard procedures. Elution was effected by incubation of the beads with one volume 20 mM Hepes, 100 mM NaCl, 1 mM dithiotreitol (H buffer) supplemented with 10 mM gluthatione and 1% sodium cholate, and the eluate was dialyzed extensively against H buffer. For binding assays, protein was bound to nitrocellulose using a BIO-RAD BIO-DOT™ apparatus, using 150 pmol per well for binding assays and 7.5 pmol for competition assays. The nitrocellulose was washed in assay buffer, and 3 mm circles of the filters containing the protein were cut out and incubated in […] assay buffer with the relevant lipids and competitors for 2 h under constant agitation. The filters were washed four times with 1 mL assay buffer and counted in a scintillation counter.
The specificity of the GRP PH domain for binding [^32 P]PI(3,4,5,)P3 was also examined with respect to competition by the inositol phosphate head groups of the phosphoinositides. […] More specifically, 25,000 cpm of [^32 P]PI(3,4,5)P3 was incubated with varying concentrations of inositol 1 ,3,4,5P4 and bound radioactivity determined. The amount of radioactivity bound was calculated as percent of that bound in the absence of competitor. The values are means of quadruplicate measurements, and the error bars are standard deviations. The lack of inhibition by the latter two phosphoinositides is particularly striking since they carry the same charge as the inhibitor […] The concentration of inositol 1,3,4,5-P4 that inhibited binding of [^32 p]PI(3,4,5,)P3 half maximally was about 3-6 μM (FIG. 5A). Taken together, the data in FIGS. 4 and 5 indicate extraordinary specificity of the GRP PH domain for PI(3,4,5)P3. […] The binding to GST fusion proteins containing amino acids 462-569 of murine Sos or amino acid 13-115 of murine IRS-1 was assayed using 150 pmoles of protein bound to the filters. Competition of binding to 7.5 pmoles of GST-PH was measured in the presence of 100 μM of the competitors. The values were calculated as in (A), and are means of quadruplicate measurements and the error bars represent standard deviations.

ARF1 = ARF1 guanine nucleotide exchange ([35S]GTPγS binding); format: biochemical; settings: [^35 S]GTPγS binding to immunoprecipitated ARF1
[1] = Binding of [32P]PI(3,4,5)P3 by GST fusion proteins spotted on nitrocellulose; settings: 150 pmol protein on nitrocellulose; relative to GST
Procedure: The 3'-phosphatidylinositol probes labeled at the 3' position were generated using GST-p110 PI3-kinase purified from recombinant bacculovirus infected Sf 9 cells, using either purified phosphatidylinositol phosphates or crude brain lipid. Briefly, 20 mg phospholipid in chloroform was dried under N2 and resuspended in […] of buffer containing Tris-HCl pH 7.4, EDTA 1 mM and incubated in […] phopsphorylation media containing 20 mM Tris-HCl pH 7.4, 100 mM NaCl, 10 mM MgCl2, 0.5 mM EGTA. 0.2 mM adenosine, GST-p110 and 5-10 mCi [g-^32 P]ATP (5 Ci/umol). The reaction was carried out for 2 h at room temperature, quenched by addition of 0.2 ml of 1M HCl, followed by 0.5 ml of chloroform:methanol (1:1). The organic phase containing phospholipids was washed 4 times with 0.4 ml of methanol:HCl (1: 1) and stored at -70° C. until use. Just before use, the lipid was dried under a stream of nitrogen with phosphatidyl serine corresponding to a final concentration of 20 mg/ml. The identities of the PI3-P, PI3,4-P2 and PI3,4,5-P3 were confirmed by TLC and HPLC analysis.
as §1
In order to determine whether PI(3,4,5)P3 binding could be localized to specific sequences within the GRP structure, GST fusion proteins containing either residues 239 to 399 (PH domain), residues 52 to 260 (Sec7 domain), or residues 5 to 71, full length GRP residues 5-399 were expressed in bacteria and purified on glutathione-conjugated beads. […] 150 pmol of the proteins were spotted on nitrocellulose filters, incubated with [^32 P]PI(3,4,5)P3 and the amount of bound lipid was determined as described. The values are the means of the quadruplicate determinations, and the error bars are the standard deviations. […] Nitrocellulose filters with GST-PH were incubated with 25,000 cpm of each of the phospholipids and the amount of bound lipid determined as described above. The values are the means of quadruplicate determinations and the error bars are the standard deviations. […] Although previous work has shown that PH domain from PLCδ (Lemmon et al. (1995) supra) and various other proteins bind 4,5-polyphosphoinositide, none have been reported to preferentially associate with a 3-polyphosphoinositide. […]

Molecule | inhibition of PtdIns(3,4,5)P3-stimulated GRP-mediated ARF1 guanine nucleotide exchange (GRP) | inhibition of [^32 P]PI(3,4,5)P3 binding to GST-PH(GRP) (GSTPH(GRP)) | binding of inositol phosphate to GRP polypeptides (GSTPH(GRP)) | ARF1 guanine nucleotide exchange (ARF1) | binding of [^32 P]PI(3,4,5)P3 by GST fusion protein [1] | other results
O=P(O)(O)O[C@H]1[C@H](OP(=O)(O)O)[C@@H](OP(=O)(O)O)[C@H](O)[C@@H](O)[C@H]1OP(=O)(O)O (relative stereo) [Ins(1,2,5,6)P4, inositol 1,2,5,6-P4] | failed to inhibit | little or no effect | not |  |  | 
O=P(O)(O)O[C@H]1[C@H](O)[C@@H](O)[C@H](OP(=O)(O)O)[C@@H](OP(=O)(O)O)[C@H]1O [Ins(1,3,4)P3] | failed to inhibit |  |  |  |  | 
O=P(O)(O)O[C@H]1[C@H](O)[C@@H](OP(=O)(O)O)[C@H](OP(=O)(O)O)[C@@H](OP(=O)(O)O)[C@H]1O [Ins(1,3,4,5)P4, inositol 1,3,4,5-P4] | virtually ablated | markedly inhibited | bind |  |  | inhibition of PtdIns(3,4,5)P3-stimulated GRP-mediated ARF1 guanine nucleotide exchange (GRP; listed as Ins(1,3,4,5) tetrakisphosphate): selectively blocked; IC50 (GSTPH(GRP); 25,000 cpm [^32 P]PI(3,4,5)P3, GST-PH, read-out: concentration that inhibited binding of [^32 p]PI(3,4,5)P3 half maximally): 3 to 6 µM
O=P(O)(O)O[C@@H]1[C@@H](O)[C@H](OP(=O)(O)O)[C@@H](OP(=O)(O)O)[C@@H](O)[C@H]1OP(=O)(O)O [Ins(1,3,4,6)P4, inositol 1,3,4,6-P4] | failed to inhibit | little or no effect | not |  |  | 
N-terminus of GRP: GST fusion protein containing residues 5 to 71 (protein, UniProt O08967 5-71, looked up, fragment, GST fusion) GGGEGGSVPEDLSLEEREELLDIRRRKKELIDDIERLKYEIAEVMTEIDNLTSVEESKTTQRNKQIA |  |  |  | no effect | No significant binding | 
GRP PH domain: GST fusion protein containing residues 239 to 399 (PH domain) (protein, GST fusion partner) LYESIKNEPFKIPEDDGNDLTHTFFNPDREGWLLKLGGRVKTWKRRWFILTDNCLYYFEYTTDKEPRGIIPLENLSIREVEDPRKPNCFELYNPSHKGQVIKACKTEADGRVVEGNHVVYRISAPSPEEKEEWMKSIKASISRDPFYDMLATRKRRIANKK |  |  |  | no effect | extensive binding | 
IRS-1PH domain: GST fusion protein containing amino acid 13-115 of murine IRS-1 (protein, UniProt P35569 13-115, looked up, fragment, PH domain GST fusion) VRKVGYLRKPKSMHKRFFVLRAASEAGGPARLEYYENEKKWRHKSSAPKRSIPLESCFNINKRADSKNKHLVALYTRDEHFAIAADSEAEQDSWYQALLQLHN |  |  |  |  | negligible | 
GRP Sec7 domain: GST fusion protein containing residues 52 to 260 (Sec7 domain) (protein, UniProt O08967 52-260, looked up, fragment, Sec7 domain GST fusion) IDNLTSVEESKTTQRNKQIAMGRKKFNMDPKKGIQFLIENDLLQSSPEDVAQFLYKGEGLNKTVIGDYLGERDDFNIKVLQAFVELHEFADLNLVQALRQFLWSFRLPGEAQKIDRMMEAFASRYCLCNPGVFQSTDTCYVLSFAIIMLNTSLHNHNVRDKPTAERFITMNRGINEGGDLPEELLRNLYESIKNEPFKIPEDDGNDLTH |  |  |  | high activity | No significant binding | ARF1 guanine nucleotide exchange (ARF1; listed as SEC7 homology domain): as effective as the fill length GRP; ARF1 guanine nucleotide exchange (ARF1; listed as Sec 7 domains of GRP): sufficient for catalysis

Reference: patent US6194173A, “Binding proteins for phosphoinositides, GRP1 or general receptor 1 for phophoinositide” (priority 1999, dated 2001)
